Experimental data taken from US20160106727A1, “COMPOSITION AND METHOD FOR THE TREATMENT OF NEURODEGENERATION” (Wright State University, priority 2011, published 2016).

Tested on: neurogenesis in the subventricular zone of the lateral brain ventricles
Experiment: Adult neurogenesis by doublecortin staining after two weeks of daily oral treatment
Assay type: in vivo, male Wistar rats
Conditions: for Fold increase in neurogenesis over vehicle control: anterior subventricular zone
[1] = doublecortin staining, two weeks daily oral

Excerpt: Animals, more specifically, male Wistar rats were used to measure differences in neurogenesis in the subventricular zone of the lateral brain ventricles in response to the various drug treatments using doublecortin primary antibody to measure neurogenesis.
The male Wistar rats aged approximately one year old were used, wherein a doublecortin antibody was used to measure neurogenesis with a horseradish peroxidase labeled secondary antibody developed with 3,3′-Diaminobenzidine (DAB).
Wherein, the male Wistar rats were given voluntary oral drug treatments daily for a two week period.
For example, four groups of Wistar rats, n=6 in each, were given a vehicle control or one of three drug compositions which are voluntary orally administered for a period of two weeks, euthanized and the brain dissected for immunohistochemistry.
Specifically, all dissected animal brains were blocked and post fixed for 24 hours in 4% paraformaldehyde in PBS at 5° C. The brains were then put into 30% sucrose in PBS at 5° C. for at least 3 days and then cut on a cryostat into 50 micron coronal sections. The sections were collected into PBS, blocked for one hour with PBS containing 1% Tween and 3% secondary antibody host serum, then reacted with doublecortin primary antibody, 1:500 dilution in blocking solution. […] Free-floating sections were washed with 3 washes of PBS containing 0.1% Tween, then incubated in the dark with secondary antibodies, Cy3-labeled Donkey anti-rabbit IgG, FITC-labeled Donkey anti-sheep IgG; Jackson Immunology, at a 1:100 dilution in blocking solution for 2.5 hours at room temperature or a Vector ABC elite horseradish peroxidase DAB kit was used according to kit instructions, mounting the final washed sections on gel-subbed slides. Sections with fluorescent secondary antibodies were washed three times with PBS containing 0.1% Tween and then the sections were mounted on gel-subbed slides.
ANOVA (analysis of variance) was used for statistical analysis.

Question: How did the “Fold increase in neurogenesis over vehicle control” value [1] turn out when `CNCCC(Oc1ccc(C(F)(F)F)cc1)c1ccccc1` (stereo not shown) [fluoxetine] was run?
Answer: approximately 10 fold

Question: What about the “Fold increase in neurogenesis over vehicle control” value (doublecortin staining, two weeks daily oral, listed as Fluoxetine) of the same molecule?
Answer: 10 fold

Question: And the “Neurogenesis compared to vehicle control (in words)” value [1]?
Answer: significant increase in neurogenesis

Question: What about the “Area of doublecortin staining (mean)” value (subventricular zone of anterior lateral ventricles, daily voluntary oral treatment for two weeks, FIG. 1E) of the same molecule?
Answer: 0.5727 mm^2
